In experiment [1] the test system is HT-29 cells. The experiment in a line: In vitro anti-proliferative activity against HT-29 cells (intracellular ATP content, 72 h). It counts as cell-based. The note with it: Homo sapiens, 72 h after dosing. Here is the method: Biological Example 2. In Vitro Anti-Proliferative Activity of Compounds of the Present Invention Against HT-29 Cells
HT-29 cells were seeded on a 384-well plate at 3000 cells/well. After overnight adherence culture, DMSO or the compounds serially diluted in a 1:5 ratio from 5 μM were added. The viability was assessed 72 h after dosing by measuring the intracellular ATP content. The inhibition percentages of viable cells by the compounds were calculated by comparing with the DMSO group, and the […] values were also calculated.

Experiment [2] has as its system HCT116 cells. The experiment in a line: In vitro anti-proliferative activity against HCT116 cells (intracellular ATP content, 72 h). The conditions noted are these: Homo sapiens, HCT-116, 72 h after dosing. Format: cell-based. Here is the method: Biological Example 3. In Vitro Anti-Proliferative Activity of Compounds of the Present Invention Against HCT116 Cells
HCT116 cells were seeded on a 384-well plate at 3000 cells/well. After overnight adherence culture, DMSO or the compounds serially diluted in a 1:5 ratio from 5 μM were added. The viability was assessed 72 h after dosing by measuring the intracellular ATP content. The inhibition percentages of viable cells by the compounds were calculated by comparing with the DMSO group, and the IC50 values were also calculated.

Experiment [3] has as its target Recombinant human KIF18A (1-467His-tagged) protein (Homo sapiens (Human), UniProt Q8NI77). Description: KIF18A enzyme assay (microtubule-stimulated ATPase activity, ADP-Glo). It counts as biochemical. The note with it: 30 nM KIF18A, ATP 75 μM, read-out: inhibitory activity against KIF18A IC50. The gist of the method: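 Baculovirus-expressed human KIF18A (1-467, His-tagged; 30 nM) preincubated 15 min at room temperature with compound (22-point 2-fold series) in pH 7.5 Tris buffer containing 30 μg/mL pig microtubules and 1 μM paclitaxel.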

Chain of Recombinant human KIF18A (1-467His-tagged) protein (Q8NI77 1-467): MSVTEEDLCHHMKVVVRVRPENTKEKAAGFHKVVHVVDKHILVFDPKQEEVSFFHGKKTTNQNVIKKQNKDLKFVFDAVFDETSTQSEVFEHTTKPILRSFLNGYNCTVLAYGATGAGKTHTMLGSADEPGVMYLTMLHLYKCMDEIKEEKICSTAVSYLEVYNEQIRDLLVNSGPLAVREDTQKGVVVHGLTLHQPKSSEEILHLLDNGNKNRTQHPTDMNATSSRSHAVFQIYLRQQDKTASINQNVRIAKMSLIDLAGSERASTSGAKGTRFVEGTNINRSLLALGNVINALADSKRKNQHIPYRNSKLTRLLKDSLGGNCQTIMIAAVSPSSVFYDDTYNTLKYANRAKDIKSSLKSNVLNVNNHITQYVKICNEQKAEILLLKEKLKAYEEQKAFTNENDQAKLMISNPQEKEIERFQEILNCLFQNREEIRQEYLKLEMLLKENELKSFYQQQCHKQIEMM
Chain of Recombinant human KIF18A (1-467His-tagged) protein (P02550 whole entry partner): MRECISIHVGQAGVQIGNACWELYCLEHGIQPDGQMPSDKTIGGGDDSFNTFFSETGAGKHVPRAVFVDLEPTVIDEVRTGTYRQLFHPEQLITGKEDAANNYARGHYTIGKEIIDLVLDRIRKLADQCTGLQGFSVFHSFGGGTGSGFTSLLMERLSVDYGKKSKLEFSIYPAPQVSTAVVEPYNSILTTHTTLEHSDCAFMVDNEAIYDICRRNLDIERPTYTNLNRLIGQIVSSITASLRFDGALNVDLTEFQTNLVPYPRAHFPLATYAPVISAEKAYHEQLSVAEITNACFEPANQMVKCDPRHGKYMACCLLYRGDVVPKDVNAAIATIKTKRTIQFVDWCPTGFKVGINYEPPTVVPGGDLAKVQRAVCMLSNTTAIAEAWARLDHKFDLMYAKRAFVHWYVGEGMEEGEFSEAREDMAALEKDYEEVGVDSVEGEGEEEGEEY
Chain of Recombinant human KIF18A (1-467His-tagged) protein (P02554 whole entry partner): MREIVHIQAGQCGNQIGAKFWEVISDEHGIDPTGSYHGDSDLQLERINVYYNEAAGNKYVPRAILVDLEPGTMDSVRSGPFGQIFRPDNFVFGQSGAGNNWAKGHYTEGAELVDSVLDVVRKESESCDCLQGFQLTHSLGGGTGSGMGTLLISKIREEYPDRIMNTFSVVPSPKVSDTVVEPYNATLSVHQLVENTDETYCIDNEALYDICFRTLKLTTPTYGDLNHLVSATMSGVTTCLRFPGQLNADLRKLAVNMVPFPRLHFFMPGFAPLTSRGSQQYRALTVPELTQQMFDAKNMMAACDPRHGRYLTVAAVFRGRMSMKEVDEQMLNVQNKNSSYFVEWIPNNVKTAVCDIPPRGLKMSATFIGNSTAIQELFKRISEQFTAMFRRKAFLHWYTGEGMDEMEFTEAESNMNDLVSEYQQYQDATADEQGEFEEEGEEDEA

Turning to `Cc1cc(NC(=O)c2ccc(NS(=O)(=O)CCO)cc2N2CCC3(CC2)CC3)nc(N2CCC(F)(F)CC2)n1` [AMG650, reference compound], the IC50 was 89 nM in experiment [1] and above 10000 nM in experiment [2].

Turning to `C[C@@H]1CN(c2cc(NC(=O)c3ccc(NS(=O)(=O)CCO)cc3N3CCC4(CC3)CC4)cc3c2OCC3)CCO1` [Compound 2], the IC50 in experiment [3] was at most 100 nM; in experiment [2] it was above 10000 nM.

As to `C[C@H]1CN(c2cc(NC(=O)c3ccc(NS(=O)(=O)CCO)cc3N3CCC4(CC3)CC4)cc3c2OCC3)CCO1` [Compound 3], the IC50 in experiment [3] was at most 100 nM; in experiment [2] it was above 10000 nM.

With `O=C(Nc1ccc(NS(=O)(=O)CCO)cc1N1CCC2(CC1)CC2)c1cc2c(c(OCCC(F)(F)F)c1)OCC2` [Compound 5], the IC50 in experiment [1] is 88 nM; in experiment [2], above 10000 nM.

`O=C(Nc1cc2c(c(N3CCC4(CC4)C3)c1)OCC2)c1ccc(NS(=O)(=O)CCO)cc1N1CCC2(CC1)CC2` [Compound 6]: the results for the IC50 in experiment [3] and in experiment [2] were at most 100 nM and above 10000 nM, respectively.

As for `C[C@H]1CN(c2nc(NC(=O)c3ccc(NS(=O)(=O)CCO)cc3N3CCC4(CC3)CC4)cc3c2OCC3)CCO1` [Compound 67], the IC50 in experiment [3] is at most 100 nM; in experiment [2], above 10000 nM.

For `O=C(Nc1cc2c(c(N3CCC4(CC4)C3)n1)OCC2)c1ccc(NS(=O)(=O)CCO)cc1N1CCC2(CC1)CC2` [Compound 70], the IC50 in experiment [3] is at most 100 nM; in experiment [2], above 10000 nM.

As for `Cn1ccc2cc(NC(=O)c3ccc(NS(=O)(=O)CCO)cc3N3CCC4(CC3)CC4)cc(N3CCC(F)(F)CC3)c21` [Compound 385], the IC50 in experiment [3] was at most 100 nM; in experiment [2] it was above 10000 nM.

In the case of `Cn1ccc2cc(C(=O)Nc3ccc(S(=O)(=O)NCCO)cc3N3CCC4(CC3)CC4)nc(OC3CCC3)c21` [Compound 503], in experiment [3], the IC50 was at most 100 nM.

Consider `Cn1ccc2cc(C(=O)Nc3ccc(S(=O)(=O)NCCO)cc3N3CCC4(CC3)CC4)nc(N3CCC(C)(F)C3)c21` (stereo not shown) [Compound 504], for which, in experiment [3], the IC50 is at most 100 nM.

As to `Cn1ccc2cc(C(=O)Nc3ccc(S(=O)(=O)NCCO)cc3N3CCC4(CC3)CC4)nc(N3CCC(F)CC3)c21` [Compound 505], the IC50 in experiment [3] was at most 100 nM.

As to `Cn1ccc2cc(C(=O)Nc3ccc(S(=O)(=O)NCCO)cc3N3CCC4(CC3)CC4)nc(N3CC4CC4C3)c21` (stereo not shown) [Compound 506], the concentration for half-maximal inhibition (IC50) in experiment [3] was at most 100 nM.

As to `Cn1ccc2cc(C(=O)Nc3ccc(S(=O)(=O)NCCO)cc3N3CCC4(CC3)CC4)nc(NC(C)(C)CO)c21` [Compound 507], the IC50 in experiment [3] is at most 100 nM.

On to `Cn1ccc2cc(C(=O)Nc3ccc(S(=O)(=O)NCCO)cc3N3CCC4(CC3)CC4)nc(N3CCOCC3)c21` [Compound 508], for which the IC50 in experiment [3] was at most 100 nM.

For `C[C@@H](CO)NS(=O)(=O)c1ccc(NC(=O)c2cc3ccn(C)c3c(N3CCC(F)(F)CC3)n2)c(N2CCC3(CC2)CC3)c1` [Compound 509], the IC50 in experiment [3] was at most 100 nM.

Consider `C[C@H](CO)NS(=O)(=O)c1ccc(NC(=O)c2cc3ccn(C)c3c(N3CCC(F)(F)CC3)n2)c(N2CCC3(CC2)CC3)c1` [Compound 510], for which the 50% inhibitory concentration (IC50) in experiment [3] was at most 100 nM.

As to `C[C@@H]1CN(c2nc(C(=O)Nc3ccc(S(=O)(=O)N[C@@H](C)CO)cc3N3CCC4(CC3)CC4)cc3ccn(C)c23)CCO1` [Compound 511], in experiment [3], the IC50 is at most 100 nM.

Take `C[C@H](CO)NS(=O)(=O)c1ccc(NC(=O)c2cc3ccn(C)c3c(N3CCO[C@H](C)C3)n2)c(N2CCC3(CC2)CC3)c1` [Compound 512]: in experiment [3], the IC50 is at most 100 nM.

For the compound `O=C(Nc1cc2ncoc2c(N2CCC(F)(F)CC2)n1)c1ccc(NS(=O)(=O)CCO)cc1N1CCC2(CC1)CC2` [Compound 514], the IC50 in experiment [3] is at most 100 nM.

`O=C(Nc1cc(N2CCC(F)(F)CC2)c2scnc2c1)c1ccc(NS(=O)(=O)CCO)cc1N1CCC2(CC1)CC2` [Compound 515]: the IC50 in experiment [3] is at most 100 nM.

Take `O=C(Nc1cc2ncsc2c(N2CCC(F)(F)CC2)n1)c1ccc(NS(=O)(=O)CCO)cc1N1CCC2(CC1)CC2` [Compound 516]: the IC50 in experiment [3] is at most 100 nM.

Take `O=C(Nc1cc(N2CCC(F)(F)CC2)c2ncoc2c1)c1ccc(NS(=O)(=O)CCO)cc1N1CCC2(CC1)CC2` [Compound 517]: the IC50 in experiment [3] is at most 100 nM.

With `O=C(Nc1cc2ocnc2c(N2CCC(F)(F)CC2)n1)c1ccc(NS(=O)(=O)CCO)cc1N1CCC2(CC1)CC2` [Compound 518], in experiment [3], the half-maximal inhibitory concentration (IC50) is at most 100 nM.

For `O=C(Nc1cc(N2CCC(F)(F)CC2)c2ncsc2c1)c1ccc(NS(=O)(=O)CCO)cc1N1CCC2(CC1)CC2` [Compound 519], the IC50 in experiment [3] was at most 100 nM.

As to `O=C(Nc1cc2scnc2c(N2CCC(F)(F)CC2)n1)c1ccc(NS(=O)(=O)CCO)cc1N1CCC2(CC1)CC2` [Compound 520], the IC50 in experiment [3] was at most 100 nM.

As to `O=C(Nc1cc(N2CCC(F)(F)CC2)c2[nH]ccc2c1)c1ccc(NS(=O)(=O)CCO)cc1N1CCC2(CC1)CC2` [Compound 521], in experiment [3], the half-maximal inhibitory concentration (IC50) is at most 100 nM.

In the case of `O=C(Nc1cc2c(c(N3CCC(F)(F)CC3)c1)NCC2)c1ccc(NS(=O)(=O)CCO)cc1N1CCC2(CC1)CC2` [Compound 523], the IC50 in experiment [3] is at most 100 nM.

Turning to `O=C(Nc1cc2c(c(N3CCC(F)(F)CC3)n1)NCC2)c1ccc(NS(=O)(=O)CCO)cc1N1CCC2(CC1)CC2` [Compound 524], the IC50 in experiment [3] was at most 100 nM.

Take `O=C(Nc1cc(N2CCC(F)(F)CC2)c2[nH]cnc2c1)c1ccc(NS(=O)(=O)CCO)cc1N1CCC2(CC1)CC2` [Compound 525]: the IC50 in experiment [3] was at most 100 nM.

Turning to `O=C(Nc1cc2nc[nH]c2c(N2CCC(F)(F)CC2)n1)c1ccc(NS(=O)(=O)CCO)cc1N1CCC2(CC1)CC2` [Compound 526], the IC50 in experiment [3] is at most 100 nM.

On to `Cn1cnc2cc(NC(=O)c3ccc(NS(=O)(=O)CCO)cc3N3CCC4(CC3)CC4)cc(N3CCC(F)(F)CC3)c21` [Compound 528], for which the IC50 in experiment [3] was at most 100 nM.

`O=C(Nc1cc(N2CCC(F)(F)CC2)c2ccccc2c1)c1ccc(NS(=O)(=O)CCO)cc1N1CCC2(CC1)CC2` [Compound 529]: the IC50 in experiment [3] lay within 100 to 500 nM.

Turning to `O=C(Nc1cc2c(c(N3CCC(F)(F)CC3)c1)CCCC2)c1ccc(NS(=O)(=O)CCO)cc1N1CCC2(CC1)CC2` [Compound 531], in experiment [3], the IC50 is 100 to 500 nM.

In the case of `O=C(Nc1cc2c(c(N3CCC(F)(F)CC3)c1)CCC2)c1ccc(NS(=O)(=O)CCO)cc1N1CCC2(CC1)CC2` [Compound 532], in experiment [3], the IC50 was at most 100 nM.

As for `O=C(Nc1cc2ccnn2c(N2CCC(F)(F)CC2)n1)c1ccc(NS(=O)(=O)CCO)cc1N1CCC2(CC1)CC2` [Compound 534], the IC50 in experiment [3] was at most 100 nM.

In the case of `O=C(Nc1cc(N2CCC(F)(F)CC2)c2nccn2c1)c1ccc(NS(=O)(=O)CCO)cc1N1CCC2(CC1)CC2` [Compound 535], in experiment [3], the IC50 is at most 100 nM.

Turning to `O=C(Nc1cn2ccnc2c(N2CCC(F)(F)CC2)n1)c1ccc(NS(=O)(=O)CCO)cc1N1CCC2(CC1)CC2` [Compound 536], in experiment [3], the IC50 is at most 100 nM.

For the compound `O=C(Nc1cc2c(c(N3CCC(F)(F)CC3)n1)OCO2)c1ccc(NS(=O)(=O)CCO)cc1N1CCC2(CC1)CC2` [Compound 538], the IC50 in experiment [3] was at most 100 nM.

For `O=C(Nc1cc2c(c(N3CCC(F)(F)CC3)n1)OCCC2)c1ccc(NS(=O)(=O)CCO)cc1N1CCC2(CC1)CC2` [Compound 540], in experiment [3], the IC50 was at most 100 nM.

With `O=C(Nc1cc2c(c(N3CCC(F)(F)CC3)c1)NCCC2)c1ccc(NS(=O)(=O)CCO)cc1N1CCC2(CC1)CC2` [Compound 541], in experiment [3], the IC50 was at most 100 nM.

Consider `O=C(Nc1cc2c(c(N3CCC(F)(F)CC3)n1)NCCC2)c1ccc(NS(=O)(=O)CCO)cc1N1CCC2(CC1)CC2` [Compound 542], for which the half-maximal inhibitory concentration (IC50) in experiment [3] was at most 100 nM.

With `O=C(Nc1cc2c(c(N3CCC(F)(F)CC3)c1)OCCO2)c1ccc(NS(=O)(=O)CCO)cc1N1CCC2(CC1)CC2` [Compound 543], the IC50 in experiment [3] was at most 100 nM.

`O=C(Nc1cc2c(c(N3CCC(F)(F)CC3)n1)OCCO2)c1ccc(NS(=O)(=O)CCO)cc1N1CCC2(CC1)CC2` [Compound 544]: the IC50 in experiment [3] is at most 100 nM.

Turning to `O=C(Nc1ccc(NS(=O)(=O)CCO)cc1N1CCC2(CC1)CC2)c1cc2c(c(N3CCC(F)(F)CC3)c1)OCCC2` [Compound 545], in experiment [3], the IC50 was at most 100 nM.

For `O=C(Nc1cc2c(c(N3CCC(F)(F)CC3)c1)OCCC2)c1ccc(S(=O)(=O)NCCO)cc1N1CCC2(CC1)CC2` [Compound 546], in experiment [3], the IC50 was at most 100 nM.

In the case of `O=C(Nc1ccc(S(=O)(=O)NCCO)cc1N1CCC2(CC1)CC2)c1cc2c(c(N3CCC(F)(F)CC3)c1)OCCC2` [Compound 547], the IC50 in experiment [3] is at most 100 nM.

On to `O=C(Nc1ccc(NS(=O)(=O)CCO)cc1N1CCC2(CC1)CC2)c1cc2c(c(N3CCC(F)(F)CC3)n1)OCCC2` [Compound 548], for which, in experiment [3], the IC50 was at most 100 nM.

For `O=C(Nc1cc2c(c(N3CCC(F)(F)CC3)n1)OCCC2)c1ccc(S(=O)(=O)NCCO)cc1N1CCC2(CC1)CC2` [Compound 549], in experiment [3], the IC50 is at most 100 nM.

As to `O=C(Nc1ccc(S(=O)(=O)NCCO)cc1N1CCC2(CC1)CC2)c1cc2c(c(N3CCC(F)(F)CC3)n1)OCCC2` [Compound 550], in experiment [3], the IC50 is at most 100 nM.

With `O=C(Nc1cc2cccnc2c(N2CCC(F)(F)CC2)n1)c1ccc(NS(=O)(=O)CCO)cc1N1CCC2(CC1)CC2` [Compound 583], the IC50 in experiment [1] is 38 nM; in experiment [2] it was above 10000 nM.

With `O=C(Nc1ccc(NS(=O)(=O)CCO)cc1N1CCC2(CC1)CC2)c1cc2cccnc2c(N2CCC(F)(F)CC2)n1` [Compound 584], the 50% inhibitory concentration (IC50) in experiment [1] is 70 nM; in experiment [2], above 10000 nM.

These data come from US20250197382A1, “KIF18A INHIBITOR” (WIGEN BIOMEDICINE TECHNOLOGY (SHANGHAI) CO., LTD., priority 2022, published 2025).
